Laboratory results taken from patent US12251363B2, “Compositions to enhance a non-surgical medical treatment” (Anti-Plasmin Technologies, LLC, priority 2017, dated 2025).

Legend:
[1] = HPLC study of interaction of tranexamic acid with hyaluronic acid dermal filler (JUVEDERM); type: physicochemical; details: freshly prepared 3% (w/v) tranexamic acid in filler; injected immediately vs after standing 20 min
Method: (§1) Similar to the above-mentioned study, the JUVEDERM® analysis was carried out with fresh sample preparations being immediately injected for analysis as well as sample preparations that were allowed to stand for a 20 minute time period prior to injection.
The sample preparation was prepared as follows: 13 mg of filler (Source: JUVEDERM® Vollere XC) was weighed in a 2.5 mL vial and diluted to 1000 μt volume by adding an aqueous solution of 60:40 ratio, by volume, distilled water/acetonitrile.

[2] = HPLC study to detect any binding interaction of tranexamic acid with hyaluronic acid polymer (ERACLEA product); type: physicochemical
Method: First a skin care product from ERACLEA® Skin Care containing 1% (w/v) hyaluronic acid polymer and preservatives was tested. […] The analysis was carried out with fresh sample preparations being mixed and immediately injected into the HPLC system for analysis as well as sample preparations that were mixed and allowed to stand for a 20 minute time period prior to injection.
as §1
The sample preparation was prepared as follows: 10 mg of hyaluronic acid polymer (Source: ERACLEA®, pure hydration) was weighed in 2.5 mL of auto sampler vial and diluted to 1000 μt volume by adding an aqueous solution of 60:40 ratio, by volume, distilled water/acetonitrile and used as a standard stock solution.
The HPLC was conducted with a flow rate of 1 mL/min, a sample concentration of 10 mg/mL, and an injection volume of 10 μt, a wave length of 205 nm and a solvent system of 40:60 ratio, by volume, acetonitrile/distilled water.

[3] = oral administration; cited from earlier work
[4] = test system: patients receiving hyaluronic acid dermal filler; test: Non-surgical clinical use: tranexamic acid solution before and after injection of hyaluronic acid dermal filler, 318 patients; type: in vivo, human; details: 3% (w/v) tranexamic acid solution before and after filler injection
From the text: Three patients of the 318 reported instances of bruising or swelling.

[5] = test system: patients undergoing dermal filler procedures; test: Bruising study: tranexamic acid solutions applied before and after dermal filler procedures, 48-hour observation; type: in vivo, human
[6] = 20% (w/v) tranexamic acid solution vs without
[7] = 20% (w/v) tranexamic acid solution, when bruising occurred

interaction between tranexamic acid and JUVEDERM filler [1]: no interaction | interaction between tranexamic acid and hyaluronic acid polymer when mixed in solution ([2]; 3% (w/v) tranexamic acid in solution containing 1% (w/v) hyaluronic acid polymer, mixed several weeks prior to HPLC): no interaction | interaction between tranexamic acid and hyaluronic acid polymer ([2]; freshly prepared 3% (w/v) tranexamic acid in hyaluronic acid polymer, injected immediately vs after standing 20 min): no interaction | interaction between tranexamic acid and the hyaluronic acid in the ERACLEA product ([2]; left in contact for several weeks (0.5% and 3% (w/v) tranexamic acid)): no interaction
Compound: NC[C@H]1CC[C@H](C(=O)O)CC1 [tranexamic acid]
fraction of the TA ingested that does not enter the blood [3]: about half | patients reported instances of bruising or swelling (count) [4]: Three | patients reported instances of bruising and swelling ([4]; 318 patients, about 1 year): Less than 1% | mild to no bruising combined, patients ([5]; 20% (w/v) tranexamic acid solution): 82% | more patients experienced no bruising vs filler labeling ([5]; 20% (w/v) tranexamic acid solution vs labeling of JUVEDERM VOLLURE XC and VOLBELLA XC): about 28% | improvement in bruising incidence ([5]; 20% (w/v) tranexamic acid solution vs other series, 48-hour observation): three-fold | improvement in mild bruising [5, 6]: 80% | improvement in mild to no bruising combined [5, 6]: 58% | improvement in severe bruising [5, 6]: 100% | patients experienced no bruising ([5]; 20% (w/v) tranexamic acid solution, 48-hour observation): Approximately 45% | patients bruised severely [5, 7]: no patients | patients only bruised mildly [5, 7]: 67% | patients experienced no bruising ([5]; other series of patients (3%, 5%, 10% (w/v), and 3% plus home use for two days), 48-hour observation): about 15%
